How the values were obtained:
human TRPV1 = biological target: T1, human TRPV1 (Homo sapiens, UniProt Q8NER1); assay: Functional assay: block of capsaicin-induced Ca2+ influx, human assay (hTRPV1/HEK293, FLIPR); assay type: cell-based; conditions: hTRPV1/HEK293 cells, 150 nM capsaicin challenge, Fluo-3 fluorescence; mean; > value = solubility limit in assay medium
T1 construct: expressed in transfected cells; host or cells: HEK293 (hTRPV1/HEK293), zeocin selection
Method in brief: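 HEK293 cells stably expressing human TRPV1, fluo3-loaded, preincubated 30 min with compound (serial 3-fold dilutions from 10 μM, duplicate) in 20 μM Ca2+ buffer. Capsaicin response taken as fluo3 fluorescence change before vs 100 s after agonist; IC50 by non-linear regression, mean values; free base or TFA salt.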

rat TRPV1 = biological target: T2, rat TRPV1 (Rattus norvegicus, UniProt O35433); assay: Functional assay: block of capsaicin-induced Ca2+ influx, rat assay (rTRPV1/HEK293, FLIPR); assay type: cell-based; conditions: rTRPV1/HEK293 cells, capsaicin challenge, Fluo-3 fluorescence; mean; > value = solubility limit in assay medium
T2 construct: expressed in transfected cells; host or cells: HEK293 (rTRPV1/HEK293), geneticin selection
Method in brief: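 Compounds, as free base or TFA salt, tested from 10 μM in three-fold steps on rTRPV1-transfected HEK293 cells, with 30 min preincubation in low-calcium (20 μM) buffer. Capsaicin-evoked Ca2+ influx measured by FLIPR fluo3 signal before and 100 s after addition. Averaged IC50 from non-linear fits.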

T2 sequence (O35433 whole entry): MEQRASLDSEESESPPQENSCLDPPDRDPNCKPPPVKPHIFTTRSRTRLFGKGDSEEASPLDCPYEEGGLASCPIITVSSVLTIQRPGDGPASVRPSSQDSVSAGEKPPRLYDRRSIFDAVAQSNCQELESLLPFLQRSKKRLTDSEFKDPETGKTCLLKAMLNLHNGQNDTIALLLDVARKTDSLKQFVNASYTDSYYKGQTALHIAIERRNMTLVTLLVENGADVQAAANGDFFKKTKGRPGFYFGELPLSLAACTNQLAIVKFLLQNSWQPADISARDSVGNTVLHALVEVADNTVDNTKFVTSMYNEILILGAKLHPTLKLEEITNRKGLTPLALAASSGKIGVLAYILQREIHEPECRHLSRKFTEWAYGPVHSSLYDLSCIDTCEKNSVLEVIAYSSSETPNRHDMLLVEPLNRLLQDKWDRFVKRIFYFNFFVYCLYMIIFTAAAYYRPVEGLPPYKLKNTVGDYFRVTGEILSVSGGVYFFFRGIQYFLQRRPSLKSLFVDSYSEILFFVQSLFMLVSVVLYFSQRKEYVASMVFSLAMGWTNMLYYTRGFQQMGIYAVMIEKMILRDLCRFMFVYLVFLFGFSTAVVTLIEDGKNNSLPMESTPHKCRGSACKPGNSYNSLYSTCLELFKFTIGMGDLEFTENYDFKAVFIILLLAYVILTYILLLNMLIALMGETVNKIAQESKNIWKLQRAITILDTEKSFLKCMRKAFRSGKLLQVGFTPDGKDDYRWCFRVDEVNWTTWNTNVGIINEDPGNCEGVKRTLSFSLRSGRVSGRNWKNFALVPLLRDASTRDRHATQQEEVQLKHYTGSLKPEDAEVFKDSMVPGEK
T1 sequence (Q8NER1 whole entry): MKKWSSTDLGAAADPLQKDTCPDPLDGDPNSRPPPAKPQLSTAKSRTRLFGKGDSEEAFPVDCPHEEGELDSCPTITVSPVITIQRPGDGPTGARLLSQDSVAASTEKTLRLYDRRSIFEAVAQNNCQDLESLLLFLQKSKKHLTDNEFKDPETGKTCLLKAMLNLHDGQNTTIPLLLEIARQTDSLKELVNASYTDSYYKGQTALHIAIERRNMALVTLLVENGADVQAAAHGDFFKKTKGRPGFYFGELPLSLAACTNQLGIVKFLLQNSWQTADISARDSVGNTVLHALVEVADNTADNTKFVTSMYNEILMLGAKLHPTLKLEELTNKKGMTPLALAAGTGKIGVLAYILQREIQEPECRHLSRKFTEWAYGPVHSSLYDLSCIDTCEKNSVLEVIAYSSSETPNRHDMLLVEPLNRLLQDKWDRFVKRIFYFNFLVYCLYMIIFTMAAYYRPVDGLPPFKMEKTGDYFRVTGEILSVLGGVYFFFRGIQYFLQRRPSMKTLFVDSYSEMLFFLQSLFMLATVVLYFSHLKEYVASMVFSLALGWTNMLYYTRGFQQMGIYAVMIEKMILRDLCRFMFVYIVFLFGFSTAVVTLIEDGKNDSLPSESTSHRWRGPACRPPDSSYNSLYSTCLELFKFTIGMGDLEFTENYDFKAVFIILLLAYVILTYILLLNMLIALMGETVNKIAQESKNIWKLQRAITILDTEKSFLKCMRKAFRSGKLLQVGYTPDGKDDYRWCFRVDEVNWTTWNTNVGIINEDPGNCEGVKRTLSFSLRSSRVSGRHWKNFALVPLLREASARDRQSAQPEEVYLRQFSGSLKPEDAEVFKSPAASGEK

Row | SMILES | IC50 (human TRPV1) [nM] | IC50 (rat TRPV1) [nM]
1 | Cc1nc(Nc2ccc(NS(C)(=O)=O)cc2)c2nc(Nc3c(C)cccc3C)sc2n1 [Example 174, N-{4-[2-(2,6-Dimethyl-phenylamino)-5-methyl-thiazolo[5,4-d]pyrimidin-7-ylamino]-phenyl}-methanesulfonamide] | > 20000 | 7380
2 | FC(F)(F)c1ccc(Nc2ncnc3sc(Nc4c(Cl)cc(CN5CCOCC5)cc4Cl)nc23)cc1 [Example 238, N^2-(2,6-Dichloro-4-morpholin-4-ylmethyl-phenyl)-N^7-(4-trifluoromethyl-phenyl)-thiazolo[5,4-d]pyrimidine-2,7-diamine] | 223 | 215
3 | Cc1noc(C)c1Nc1nc2c(Nc3ccc(S(=O)(=O)N4CCOCC4)cc3)ncnc2s1 [Example 221, N^2-(3,5-Dimethylisoxazol-4-yl)-N^7-[4-(morpholin-4-ylsulfonyl)phenyl][1,3]thiazolo[5,4-d]pyrimidine-2,7-diamine] | 1080 | 271
4 | CSc1nc(Nc2ccc(S(=O)(=O)N(C)C)cc2)c2nc(Nc3c(Cl)cccc3Cl)sc2n1 [Example 127, 4-[2-(2,6-Dichloro-phenylamino)-5-methylsulfanyl-thiazolo[5,4-d]pyrimidin-7-ylamino]-N,N-dimethyl-benzenesulfonamide] | 138 | 59
5 | Cc1nc(Nc2ccc(N(S(C)(=O)=O)S(C)(=O)=O)cc2)c2nc(Nc3c(Cl)cccc3Cl)sc2n1 [Example 173, N-{4-[2-(2,6-Dichloro-phenylamino)-5-methyl-thiazolo[5,4-d]pyrimidin-7-ylamino]-phenyl}-dimethanesulfonamide] | > 6670 | > 6670
6 | Cc1nc(Nc2ccc(C(F)(F)F)cc2)c2nc(N(C)c3c(Cl)cccc3Cl)sc2n1 [Example 23, N^2-(2,6-Dichloro-phenyl)-5,N^2-dimethyl-N^7-(4-trifluoromethyl-phenyl)-thiazolo[5,4-d]pyrimidine-2,7-diamine] | 1140 | 319
7 | CSc1nc(Nc2ccc(C(F)(F)F)cc2)c2nc(Nc3c(Cl)cccc3Cl)sc2n1 [Example 52, N^2-(2,6-Dichloro-phenyl)-5-methylsulfanyl-N^7-(4-trifluoromethyl-phenyl)-thiazolo[5,4-d]pyrimidine-2,7-diamine] | 226 | 154
8 | O=S(=O)(c1ccc(Nc2ncnc3sc(Nc4ccccc4Cl)nc23)cc1)N1CCOCC1 [Example 216, N^2-(2-Chlorophenyl)-N^7-[4-(morpholin-4-ylsulfonyl)phenyl][1,3]thiazolo[5,4-d]pyrimidine-2,7-diamine] | 24 | 15
9 | COC[C@H]1CCCN1c1nc(Nc2ccc(C(F)(F)F)cc2)c2nc(Nc3c(Cl)cccc3Cl)sc2n1 [Example 194, (2R)-N^2-(2,6-Dichloro-phenyl)-5-(2-methoxymethyl-pyrrolidin-1-yl)-N^7-(4-trifluoromethyl-phenyl)-thiazolo[5,4-d]pyrimidine-2,7-diamine] | 133 | 125
10 | Cc1nc(Nc2ccccc2)c2nc(Nc3c(C)cccc3C)sc2n1 [Example 141, N^2-(2,6-Dimethyl-phenyl)-5-methyl-N^7-phenyl-thiazolo[5,4-d]pyrimidine-2,7-diamine] | 350 | 223
11 | Oc1ccc(Nc2ncnc3sc(Nc4c(Cl)cccc4Cl)nc23)cc1O [Example 227, 4-({2-[(2,6-Dichlorophenyl)amino][1,3]thiazolo[5,4-d]pyrimidin-7-yl}amino)benzene-1,2-diol] | > 6670 | > 6670
12 | COc1nc(Nc2ccc(C(F)(F)F)cc2)c2nc(Nc3c(Cl)cccc3Cl)sc2n1 [Example 55, N^2-(2,6-Dichloro-phenyl)-5-methoxy-N^7-(4-trifluoromethyl-phenyl)-thiazolo[5,4d]pyrimidine-2,7-diamine] | > 20000 | > 20000
13 | O=C(O)c1cc(Cl)c(Nc2nc3c(Nc4ccc(C(F)(F)F)cc4)ncnc3s2)c(Cl)c1 [Example 243, 3,5-Dichloro-4-[7-(4-trifluoromethyl-phenylamino)-thiazolo[5,4-d]pyrimidin-2-ylamino]-benzoic acid] | 4610 | 6540
14 | Cc1cccc(C)c1Nc1nc2c(NC3CCC(C(C)(C)C)CC3)ncnc2s1 (single isomer, unassigned) [Example 248, N^7-(4-tert-Butyl-cyclohexyl)-N^2-(2,6-dimethyl-phenyl)-thiazolo[5,4-d]pyrimidine-2,7-diamine] | 1100 | 240
15 | Cc1nc(Nc2ccc(S(=O)(=O)N(C)C)cc2)c2nc(Nc3c(C)cccc3C)sc2n1 [Example 85, 4-[2-(2,6-Dimethyl-phenylamino)-5-methyl-thiazolo[5,4-d]pyrimidin-7-ylamino]-N,N-dimethyl-benzenesulfonamide] | 4 | 3
16 | CC1CCCN1c1nc(Nc2ccc(C(F)(F)F)cc2)c2nc(Nc3c(Cl)cccc3Cl)sc2n1 (racemic) [Example 105, (racemic)-N^2-(2,6-Dichloro-phenyl)-5-(2-methyl-pyrrolidin-1-yl)-N^7-(4-trifluoromethyl-phenyl)-thiazolo[5,4-d]pyrimidine-2,7-diamine] | 24 | 17
17 | Cc1nc(Nc2ccc3c(c2)N(C)CCC3)c2nc(Nc3c(Cl)cccc3Cl)sc2n1 [Example 139, N^2-(2,6-Dichloro-phenyl)-5-methyl-N^7-(1-methyl-1,2,3,4-tetrahydro-quinolin-7-yl)-thiazolo[5,4-d]pyrimidine-2,7-diamine] | 280 | 78
18 | CNCCNc1nc(Nc2ccc(C(F)(F)F)cc2)c2nc(Nc3c(Cl)cccc3Cl)sc2n1 [Example 181, N^2-(2,6-Dichloro-phenyl)-N^5-(2-methylamino-ethyl)-N^7-(4-trifluoromethyl-phenyl)-thiazolo[5,4-d]pyrimidine-2,5,7-triamine] | 6440 | > 20000
19 | O=S(=O)(c1ccc(Nc2ncnc3sc(Nc4c(Cl)cccc4Cl)nc23)cc1)N1CCCC1 [Example 76, N^2-(2,6-Dichloro-phenyl)-N^7-[4-(pyrrolidine-1-sulfonyl)-phenyl]-thiazolo[5,4-d]pyrimidine-2,7-diamine] | 1 | 1
20 | CSc1ccccc1Nc1nc2c(Nc3ccc(C(F)(F)F)cc3)nc(C)nc2s1 [Example 195, 5-Methyl-N^2-(2-methylsulfanyl-phenyl)-N^7-(4-trifluoromethyl-phenyl)-thiazolo[5,4-d]pyrimidine-2,7-diamine] | 419 | 319
21 | Cc1nc(Nc2ccc(SC(C)C)cc2)c2nc(Nc3c(Cl)cccc3Cl)sc2n1 [Example 103, N^2-(2,6-Dichloro-phenyl)-N^7-(4-isopropylsulfanyl-phenyl)-5-methyl-thiazolo[5,4-d]pyrimidine-2,7-diamine] | 20 | 33

Now from value to compound:

Row | IC50 (human TRPV1) [nM] | IC50 (rat TRPV1) [nM] | SMILES
22 | 64 | 15 | CSc1ccc(Nc2ncnc3sc(Nc4c(C)cccc4C)nc23)cc1 [Example 120, N^2-(2,6-Dimethyl-phenyl)-N^7-(4-methylsulfanyl-phenyl)-thiazolo[5,4-d]pyrimidine-2,7-diamine]
23 | 1520 | 1860 | Cc1cccc(C)c1Nc1nc2c(Nc3ccc(OC4CCOC4)cc3)ncnc2s1 (racemic) [Example 154, (racemic)-N^2-(2,6-Dimethyl-phenyl)-N^7-[4-(tetrahydro-furan-3-yloxy)-phenyl]-thiazolo[5,4-d]pyrimidine-2,7-diamine]
24 | 81 | 39 | Cc1cccc(C)c1Nc1nc2c(Nc3ccc(OC(F)(F)F)cc3)ncnc2s1 [Example 28, N^2-(2,6-Dimethyl-phenyl)-N^7-(4-trifluoromethoxy-phenyl)-thiazolo[5,4-d]pyrimidine-2,7-diamine]
25 | 8 | 5 | Cc1cccc(C)c1Nc1nc2c(Nc3ccc(C(C)C)cc3)ncnc2s1 [Example 46, N^2-(2,6-Dimethyl-phenyl)-N^7-(4-isopropyl-phenyl)-thiazolo[5,4-d]pyrimidine-2,7-diamine]
26 | 12 | 32 | Cc1cccc(C)c1Nc1nc2c(Nc3ccc(S(C)(=O)=O)c(F)c3)ncnc2s1 [Example 97, N^2-(2,6-Dimethyl-phenyl)-N^7-(3-fluoro-4-methanesulfonyl-phenyl)-thiazolo[5,4-d]pyrimidine-2,7-diamine]
27 | 30 | 4 | Cc1cccc(C)c1Nc1nc2c(Nc3ccc(C(C)(C)C)cc3)ncnc2s1 [Example 12, N^7-(4-tert-Butyl-phenyl)-N^2-(2,6-dimethyl-phenyl)-thiazolo[5,4-d]pyrimidine-2,7-diamine]
28 | 2990 | > 6670 | Cc1ccc(Nc2ncnc3sc(Nc4c(C)cccc4C)nc23)cc1O [Example 160, 5-[2-(2,6-Dimethyl-phenylamino)-thiazolo[5,4-d]pyrimidin-7-ylamino]-2-methyl-phenol]
29 | > 6670 | > 6670 | Cc1cccc(C)c1Nc1nc2c(Nc3ccc(C(F)(F)F)cc3Cl)ncnc2s1 [Example 167, N^7-(2-Chloro-4-trifluoromethyl-phenyl)-N^2-(2,6-dimethyl-phenyl)-thiazolo[5,4-d]pyrimidine-2,7-diamine]
30 | 4 | 2 | Cc1nc(Nc2ccc(C(C)C)cc2)c2nc(Nc3c(Cl)cccc3Cl)sc2n1 [Example 84, N^2-(2,6-Dichloro-phenyl)-N^7-(4-isopropyl-phenyl)-5-methyl-thiazolo[5,4-d]pyrimidine-2,7-diamine]

Source: patent US20080004253A1, “Thiazolopyrimidine modulators of TRPV1” (priority 2006, published 2008)
